Reference: patent US20030129629A1, “Methods and compositions for the identification, assessment, prevention, and therapy of human cancers” (Millennium Pharmaceuticals, Inc., priority 2000, published 2003)
Read-outs that look alike come from different tables or passages of the source.

Tests used:
[1] = system: 60 cancer cell lines (NCI 60 cancer cell line series); assay: NCI-DTP in vitro cancer screen, sulforhodamine B (SRB) growth inhibition, 48 hour exposure; format: cell-based, human
Procedure, shortened: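 NCI-DTP panel of 60 cancer cell lines plated day 0 at line-specific densities, exposed from day 1 to compound at 5 ten-fold-spaced doses in duplicate wells. After 48 h, cell mass stained with sulforhodamine B; −log GI50 derived from dose–response curves, averaged, and classed Low, Medium or High sensitivity.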

[2] = system: 60 cancer cell lines (NCI 60 cancer cell line series); settings: cited from earlier work

COc1cc([C@@H]2c3cc4c(cc3[C@@H](O[C@@H]3O[C@@H]5CO[C@@H](c6cccs6)O[C@H]5[C@H](O)[C@H]3O)[C@H]3COC(=O)[C@H]23)OCO4)cc(OC)c1O [Teniposide]
classification of cell line as Low(1), Medium(2), High(3) sensitivity to compound ([1]; Breast BT-549 CL5013): 2
classification of cell line as Low(1), Medium(2), High(3) sensitivity to compound ([1]; Breast HS-578T CL5006): 2
classification of cell line as Low(1), Medium(2), High(3) sensitivity to compound ([1]; Breast MCF7(I) CL5001): 3
classification of cell line as Low(1), Medium(2), High(3) sensitivity to compound ([1]; Breast MCF7/ADRr CL5002): 1
classification of cell line as Low(1), Medium(2), High(3) sensitivity to compound ([1]; Breast MDA-MB-231 CL5005): 2
classification of cell line as Low(1), Medium(2), High(3) sensitivity to compound ([1]; Breast MDA-MB-435 CL5011): 2
classification of cell line as Low(1), Medium(2), High(3) sensitivity to compound ([1]; Breast MDA-N CL5012): 2
classification of cell line as Low(1), Medium(2), High(3) sensitivity to compound ([1]; Breast T-47D CL5014): 2
classification of cell line as Low(1), Medium(2), High(3) sensitivity to compound ([1]; CNS SF-268 CL12014): 2
classification of cell line as Low(1), Medium(2), High(3) sensitivity to compound ([1]; CNS SF-295 CL12015): 2
classification of cell line as Low(1), Medium(2), High(3) sensitivity to compound ([1]; CNS SF-539 CL12016): 2
classification of cell line as Low(1), Medium(2), High(3) sensitivity to compound ([1]; CNS SNB-19 CL12002): 2
classification of cell line as Low(1), Medium(2), High(3) sensitivity to compound ([1]; CNS SNB-75(I) CL12005): 2
classification of cell line as Low(1), Medium(2), High(3) sensitivity to compound ([1]; CNS U251(I) CL12009): 2
classification of cell line as Low(1), Medium(2), High(3) sensitivity to compound ([1]; Colon COLO-250 CL4010): 2
classification of cell line as Low(1), Medium(2), High(3) sensitivity to compound ([1]; Colon HCC-2998 CL4002): 2
classification of cell line as Low(1), Medium(2), High(3) sensitivity to compound ([1]; Colon HCT-15 CL4015): 2
classification of cell line as Low(1), Medium(2), High(3) sensitivity to compound ([1]; Colon HCT-116 CL4003): 2
classification of cell line as Low(1), Medium(2), High(3) sensitivity to compound ([1]; Colon HT29(I) CL4001): 2
classification of cell line as Low(1), Medium(2), High(3) sensitivity to compound ([1]; Colon KM12 CL4017): 2
classification of cell line as Low(1), Medium(2), High(3) sensitivity to compound ([1]; Colon SW-620 CL4009): 2
classification of cell line as Low(1), Medium(2), High(3) sensitivity to compound ([1]; Leukemia CCRF-CEM(I) CL7003): 3
classification of cell line as Low(1), Medium(2), High(3) sensitivity to compound ([1]; Leukemia HL-60(I) CL7008): 3
classification of cell line as Low(1), Medium(2), High(3) sensitivity to compound ([1]; Leukemia K562(I) CL7005): 2
classification of cell line as Low(1), Medium(2), High(3) sensitivity to compound ([1]; Leukemia MOLT-4 CL7006): 3
classification of cell line as Low(1), Medium(2), High(3) sensitivity to compound ([1]; Leukemia RPMI-8226(I) CL7010): 2
classification of cell line as Low(1), Medium(2), High(3) sensitivity to compound ([1]; Leukemia SR CL7019): 3
classification of cell line as Low(1), Medium(2), High(3) sensitivity to compound ([1]; Melanoma LOX IMVI CL10001): 2
classification of cell line as Low(1), Medium(2), High(3) sensitivity to compound ([1]; Melanoma M14 CL10014): 2
classification of cell line as Low(1), Medium(2), High(3) sensitivity to compound ([1]; Melanoma MALME-3M CL10002): 2
classification of cell line as Low(1), Medium(2), High(3) sensitivity to compound ([1]; Melanoma SK-MEL-2 CL10005): 2
classification of cell line as Low(1), Medium(2), High(3) sensitivity to compound ([1]; Melanoma SK-MEL-28 CL10008): 2
sensitivity classification Low(1)/Medium(2)/High(3) ([1]; NSCLC NCI-H23(I) CL1001): 2
sensitivity classification Low(1)/Medium(2)/High(3) ([1]; NSCLC NCI-H332M CL1017): 1
sensitivity classification Low(1)/Medium(2)/High(3) ([1]; NSCLC NCI-H460 CL1021): 3
sensitivity classification Low(1)/Medium(2)/High(3) ([1]; NSCLC NCI-H522 CL1003): 2
sensitivity classification Low(1)/Medium(2)/High(3) ([1]; Ovarian IGROV1 CL6010): 2
sensitivity classification Low(1)/Medium(2)/High(3) ([1]; Ovarian OVCAR-3 CL6001): 2
sensitivity classification Low(1)/Medium(2)/High(3) ([1]; Ovarian OVCAR-4 CL6002): 1
sensitivity classification Low(1)/Medium(2)/High(3) ([1]; Ovarian OVCAR-5 CL6003): 2
sensitivity classification Low(1)/Medium(2)/High(3) ([1]; Ovarian OVCAR-8 CL6005): 2
sensitivity classification Low(1)/Medium(2)/High(3) ([1]; Ovarian SK-OV-3 CL6011): 2
sensitivity classification Low(1)/Medium(2)/High(3) ([1]; Prostate DU-145 CL11003): 2
sensitivity classification Low(1)/Medium(2)/High(3) ([1]; Prostate PC-3(I) CL11001): 2
sensitivity classification Low(1)/Medium(2)/High(3) ([1]; Renal 786-0 CL9018): 2
sensitivity classification Low(1)/Medium(2)/High(3) ([1]; Renal A498 CL9013): 2
sensitivity classification Low(1)/Medium(2)/High(3) ([1]; Renal ACHN CL9023): 2
sensitivity classification Low(1)/Medium(2)/High(3) ([1]; Renal CAKI-1 CL9015): 3
sensitivity classification Low(1)/Medium(2)/High(3) ([1]; Renal RXF-393 CL9016): 2
sensitivity classification Low(1)/Medium(2)/High(3) ([1]; Renal SN12C CL9008): 2
sensitivity classification Low(1)/Medium(2)/High(3) ([1]; Renal TK10 CL9024): 2
sensitivity classification Low(1)/Medium(2)/High(3) ([1]; Renal UO-31 CL9004): 1
−Log (GI50) ([2]; Melanoma SK-MEL-2 CL10005): 6.0
−Log (GI50) ([2]; Melanoma SK-MEL-28 CL10008): 5.8
−Log (GI50) ([2]; NSCLC NCI-H226 CL1013): 6.5
